# According to patent US10722479B2, “Dimethoxyphenyl inhibitors of vesicular monoamine transporter 2” (AUSPEX PHARMACEUTICALS, INC., priority 2015, dated 2020):
# Assay: In vitro liver microsomal stability assay
# Details: human liver microsomes 0.5 mg per mL, NADPH 2 mM, pH 7.4, 1 uM compound, 37° C.; relative to d0 (Example 1)
# Experimental: In Vitro Liver Microsomal Stability Assay
# Human liver microsomal stability assays were conducted at 0.5 mg per mL liver microsome protein with NADPH (2 mM, pH 7.4).
# Reactions were initiated with the addition of NADPH cofactor and were stopped at 0, 5, 15, 20 or 30 min after cofactor addition with stop reagent, acetonitrile. After quenching, plates containing samples were vibrated for 10 min (600 rpm/min) and then centrifuged at 5594 g for 15 min. Supernatant fractions were analyzed by LC-MS/MS to determine the percent remaining and estimate the degradation half-life of the test compounds.
Clearance % change over d0 [%],Half-life % change over d0 [%],SMILES
−4.71,4.95,"[2H]C([2H])([2H])c1cccc(OCC(O)CNCCc2ccc(OC)c(OC)c2)c1 (stereo not shown) [Example 3, [2-(3,4-dimethoxyphenyl)ethyl]([2-hydroxy-3-[3-(2H3)methylphenoxy]propyl])amine]"
0.85,−0.84,"[2H]C([2H])([2H])Oc1ccc(CCNC([2H])([2H])C([2H])(O)C([2H])([2H])Oc2cccc(C)c2)cc1OC([2H])([2H])[2H] (stereo not shown) [Example 5, 1-([2-[3,4-bis(^2H6)methoxyphenyl]ethyl]amino)-3-(3-methylphenoxy)(^2H5) propan-2-ol]"

# The remaining lines, values behind:
SMILES,Clearance % change over d0 [%],Half-life % change over d0 [%]
"COc1ccc(CCNCC(O)COc2cccc(C)c2)cc1OC (stereo not shown) [Example 1, [2-(3,4-dimethoxyphenyl)ethyl][2-hydroxy-3-(3-methylphenoxy)propyl]amine, reference compound]",0.00,0.00
"[2H]C([2H])([2H])Oc1ccc(CCNCC(O)COc2cccc(C)c2)cc1OC([2H])([2H])[2H] (stereo not shown) [Example 2, [2-[3,4-bis(^2H6)methoxyphenyl]ethyl][2-hydroxy-3-(3-methylphenoxy)propyl]amine]",1.68,−1.65
"[2H]C([2H])([2H])Oc1ccc(CCNCC(O)COc2cccc(C([2H])([2H])[2H])c2)cc1OC([2H])([2H])[2H] (stereo not shown) [Example 4, [2-[3,4-bis(^2H6)methoxyphenyl]ethyl]([2-hydroxy-3-[3-(^2H3)methylphenoxy]propyl])amine]",−21.15,26.83
